# Measurements from US8648086B2, “5,6-bicyclic heteroaryl-containing urea compounds as kinase inhibitors” (Ascepion Pharmaceuticals, Inc., priority 2009, dated 2014).
# How the values were obtained:
# VEGFR2 = target: T1, VEGFR2 (Homo sapiens, UniProt P35968); assay: VEGFR2 cell-based assay (phospho-VEGFR2 ELISA, transfected CHO cells); details: compound at 100 nM, read-out: % VEGFR2 kinase activity remains
# T1 construct: expressed in transfected cells; host or cells: CHO cells, pcDNA3.1 plasmid
# Experimental: A standard cell-based assay for VEGFR2 kinase activity can be used to test compounds of this invention and to identify VEGFR2 antagonists.
# Specifically, a compound to be tested was first dissolved in DMSO to a concentration of 10 mM and stored at −20° C. The activity of VEGFR2 in cells depends on the phosphorylation level at its intracellular domain induced by the ligand. In order to express VEGFR2 in the cells, full length VEGFR2 sequence was cloned into PC-DNA3.1 vector, the plasmid was then transfected into CHO cells. After 48 hours, the expression of VEGFR2 in transfected CHO cells was confirmed by regular western blotting.
# To screen the compounds of this invention, the ELISA kit (R&D Systems) was used. One day before the screening, CHO cells transfected with full length VEGFR2 plasmid were grown in DMEM medium without the presence of serum. On the day of screening, various concentrations of compounds (From 0.5 nM to 500 nM) were added into DMEM medium. Two hours later, 20% of FBS (Fetal Bovine Serum) was added into the medium to stimulate the production of phosphor-VEGFR2. Cell lysate from approximately 5×10^5 transfected CHO cells were reacted with anti-phosphor-VEGFR2 or anti-total VEGFR2 antibody in 96 well plates. In the presence of detection antibody, the phosphor-VEGFR2 or total VEGFR2 were detected with Streptavidin-HRP (R&D Systems) followed by chemiluminescence detection.
# [1] = system: MDA-MB-231 human breast cancer cells; assay: In vivo anti-tumor efficacy, MDA-MB-231 xenograft; details: Breast cancer MDA-MB-231, nu/nu Balb/c mice, 100 mg/kg oral once per day, n = 2 × 3
# Experimental: Female (nu/nu) Balb/c athymic mice at 4-6 weeks of age were injected subcutaneously (s.c.) with MDA-MB-231 human breast cancer cells, A549 human non-small cell lung cancer cells, U87-MG human glioblastoma cells, PC-3 human prostate cancer cells, HT-29 human colon cancer, BEL-7404 human hepatocellular carcinoma, or MKN-45 human gastric cancer cells (ATCC, 5×10^6 cells suspended in 100 μl DMEM medium). Treatment was initiated after the tumor mass grown from s.c. implanted tumor cells reached a median volume of 200-400 mm^3. Mice were randomized into groups with three in each group for small-sample efficacy tests such that the median tumor volume is nearly equal among all groups. For large-sample efficacy tests, mice were randomized into groups with thirteen or fourteen in each group. Each group was treated either with compounds (dissolved in 2:1 mixture of PEG400 and 0.01N HCl (v/v)) or without compounds (vehicle only, 2:1 mixture of PEG400 and 0.01N HCl (v/v)) once per day at dose 12.5, 25, 50 or 100 mg/kg by oral gavage. Tumor volumes were assessed at least twice weekly by caliper measurement from the start of treatment. Tumor volume was calculated using the formula ½×L×W^2 (L: length of tumor's long axis, W: length of tumor's short axis). Treatment was applied for at least two weeks or until the tumor volume reaches a size of ˜2500 mm^3 or greater. Mice were humanly sacrificed after the experiment.
# The efficacy of compounds in reducing tumor growth was assessed by the index Tumor Growth Inhibition (TGI). TGI for a given treatment period was calculated using the group mean tumor volumes according to the formula: TGI=100×(VVehicle—group−VTreatment—group)÷VVehicle—group wherein VVehicle—group represents the mean tumor volume for the group treated with vehicle and VTreatment—group represents the mean tumor volume of the group treated with a compound.
# c-Met = target: T2, c-Met (Homo sapiens, UniProt P08581); assay: c-Met cell-based assay (phospho-c-Met ELISA, A549 cells); details: compound at 100 nM
# T2 construct: endogenous in cells; host or cells: A549 cells
# Experimental: A procedure for standard cell-based assay for c-Met kinase activity can be used to test compounds of this invention for their inhibitory effect on this kinase and to identify c-Met antagonists.
# Specifically, a compound to be tested was first dissolved in DMSO to a concentration of 10 mM and stored at −20° C. The activity of c-Met in cells depends on the phosphorylation level at its intracellular domain induced by its ligand, Hepatocyte growth factor (HGF). In order to induce the cells to produce phosphate c-Met, paracrine HGF-dependent NSCLC (None Small Cell Lung Cancer) A549 cells were grown in DMEM with 10% FBS.
# To screen compounds of this invention for their inhibitory effect on c-Met kinase, the ELISA kit (R&D Systems) was used. One day before screening procedure, A549 cells were grown in DMEM without the presence of serum. On the day of screening procedure, various concentrations of compounds (from 0.5 nM to 500 nM) were added into the culture medium. Two hours later, 20% of FBS (Fetal Bovine Serum) was added into the medium to stimulate the expression of phosphor-c-Met. After 20 minutes, cell lysate from approximately 5×10^5 A549 cells were reacted with anti-phosphor-c-Met or anti total c-Met antibody in 96 well plates. In the presence of detection antibody, the phosphor-c-Met or total c-Met can be detected with Streptavidin-HRP (R&D Systems) followed by chemiluminescence detection.
# PDGFRβ = target: T3, PDGFRβ (Homo sapiens, UniProt P09619); assay: PDGFRβ cell-based assay (phospho-PDGFRβ ELISA, transfected CHO cells); details: compound at 100 nM, read-out: % PDGFRβ kinase activity remains
# T3 construct: expressed in transfected cells; host or cells: CHO cells, pcDNA3.1 plasmid
# Experimental: A standard cell-based assay for PDGFRβ kinase activity can be used to test a compound of this invention and to identify PDGFRβ antagonists.
# Specifically, a compound to be tested was first dissolved in DMSO to a concentration of 10 mM and stored at −20° C. The activity of PDGFRβ in cells depends on the phosphorylation level of its intracellular domain induced by the ligand. In order to express PDGFRβ in the cell, full length PDGFRβ sequence was cloned into PC-DNA3.1 vector. The plasmid was then transfected into CHO cells. After 48 hours following the transfection, the expression of PDGFRβ in transfected CHO cells was confirmed by regular western blotting.
# To screen the compound of this invention, the ELISA kit (R&D Systems, Minneapolis, Minn., USA) was used. One day before the screening, CHO cells transfected with full length PDGFRβ plasmid were grown in DMEM medium without the presence of serum. On the day of screening, various concentrations of compounds (from 0.5 nM to 500 nM) were added into DMEM medium. Two hours later, 20% of FBS (Fetal Bovine Serum) was added into the medium to stimulate the expression of phosphor-PDGFRβ. Cell lysate from approximately 5×10^5 transfected CHO cells were reacted with anti-phosphor-PDGFRβ or anti-total PDGFRβ antibody in 96 well plates, in the presence of detection antibody, the phosphor-PDGFRβ or total PDGFRβ were detected with Streptavidin-HRP (R&D Systems), followed by chemiluminescent detection.
# T2 sequence (P08581 25-1390): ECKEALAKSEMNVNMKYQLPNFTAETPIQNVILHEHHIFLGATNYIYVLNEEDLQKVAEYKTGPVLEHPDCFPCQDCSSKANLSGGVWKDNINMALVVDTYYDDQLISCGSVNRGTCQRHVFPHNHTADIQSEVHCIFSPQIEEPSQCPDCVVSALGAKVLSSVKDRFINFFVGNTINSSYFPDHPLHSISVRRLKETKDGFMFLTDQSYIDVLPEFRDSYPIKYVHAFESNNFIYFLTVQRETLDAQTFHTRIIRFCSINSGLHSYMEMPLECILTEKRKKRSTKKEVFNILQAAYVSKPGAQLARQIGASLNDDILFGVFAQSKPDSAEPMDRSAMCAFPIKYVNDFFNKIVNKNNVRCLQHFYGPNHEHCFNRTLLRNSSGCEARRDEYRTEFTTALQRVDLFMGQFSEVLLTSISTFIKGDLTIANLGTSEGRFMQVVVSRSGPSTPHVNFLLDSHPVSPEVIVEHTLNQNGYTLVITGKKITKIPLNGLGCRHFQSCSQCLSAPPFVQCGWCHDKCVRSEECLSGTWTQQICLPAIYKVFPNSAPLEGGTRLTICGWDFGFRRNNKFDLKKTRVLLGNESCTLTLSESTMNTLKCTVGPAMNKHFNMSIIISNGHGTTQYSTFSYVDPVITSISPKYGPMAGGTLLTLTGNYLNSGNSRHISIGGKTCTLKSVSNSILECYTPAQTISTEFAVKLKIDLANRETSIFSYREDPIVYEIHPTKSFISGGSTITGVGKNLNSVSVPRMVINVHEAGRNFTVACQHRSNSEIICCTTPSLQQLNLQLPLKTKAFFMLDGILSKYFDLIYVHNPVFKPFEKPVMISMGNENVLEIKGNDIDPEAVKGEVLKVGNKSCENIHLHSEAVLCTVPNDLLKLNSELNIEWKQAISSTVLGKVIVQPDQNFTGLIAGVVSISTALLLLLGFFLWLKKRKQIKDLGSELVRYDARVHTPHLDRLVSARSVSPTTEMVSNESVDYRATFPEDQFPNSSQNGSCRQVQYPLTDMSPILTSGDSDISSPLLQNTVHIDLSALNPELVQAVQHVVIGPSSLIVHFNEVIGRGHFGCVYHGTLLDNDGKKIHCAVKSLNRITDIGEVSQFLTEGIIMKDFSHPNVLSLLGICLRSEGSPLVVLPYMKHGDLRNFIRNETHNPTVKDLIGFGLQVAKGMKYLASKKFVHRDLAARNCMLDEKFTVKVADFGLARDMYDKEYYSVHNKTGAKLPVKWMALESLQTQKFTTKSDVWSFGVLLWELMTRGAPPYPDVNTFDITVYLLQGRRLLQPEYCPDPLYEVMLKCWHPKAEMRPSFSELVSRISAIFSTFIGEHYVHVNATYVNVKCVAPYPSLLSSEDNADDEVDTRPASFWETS
# T3 sequence (P09619 33-1106, species assumed): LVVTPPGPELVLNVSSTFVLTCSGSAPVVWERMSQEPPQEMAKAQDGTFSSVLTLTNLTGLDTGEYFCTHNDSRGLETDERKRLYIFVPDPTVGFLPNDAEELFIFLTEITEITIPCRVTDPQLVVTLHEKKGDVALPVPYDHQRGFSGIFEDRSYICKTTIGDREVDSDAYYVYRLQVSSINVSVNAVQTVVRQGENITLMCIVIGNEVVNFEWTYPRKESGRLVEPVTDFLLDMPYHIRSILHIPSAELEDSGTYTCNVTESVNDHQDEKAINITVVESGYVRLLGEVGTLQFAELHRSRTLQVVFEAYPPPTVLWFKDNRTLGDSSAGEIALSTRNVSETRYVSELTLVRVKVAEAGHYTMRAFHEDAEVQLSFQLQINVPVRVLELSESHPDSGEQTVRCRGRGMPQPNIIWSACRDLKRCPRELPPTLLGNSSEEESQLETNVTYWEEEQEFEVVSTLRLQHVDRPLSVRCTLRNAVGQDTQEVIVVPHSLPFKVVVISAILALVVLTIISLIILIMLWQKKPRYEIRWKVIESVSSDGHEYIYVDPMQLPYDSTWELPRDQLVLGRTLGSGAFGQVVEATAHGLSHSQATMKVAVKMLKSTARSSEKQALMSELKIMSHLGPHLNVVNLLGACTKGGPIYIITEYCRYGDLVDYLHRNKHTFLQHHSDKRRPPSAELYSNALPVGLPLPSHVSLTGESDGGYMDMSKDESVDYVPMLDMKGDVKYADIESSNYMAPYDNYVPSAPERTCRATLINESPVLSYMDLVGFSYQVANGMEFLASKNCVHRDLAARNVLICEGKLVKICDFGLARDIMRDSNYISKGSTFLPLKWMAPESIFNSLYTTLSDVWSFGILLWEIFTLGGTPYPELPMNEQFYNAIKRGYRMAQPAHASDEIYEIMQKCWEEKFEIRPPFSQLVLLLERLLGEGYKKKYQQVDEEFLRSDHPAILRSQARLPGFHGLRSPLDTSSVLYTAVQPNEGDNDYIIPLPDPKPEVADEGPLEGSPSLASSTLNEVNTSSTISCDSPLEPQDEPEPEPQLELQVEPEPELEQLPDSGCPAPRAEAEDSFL
# T1 sequence (P35968 20-1356, species assumed): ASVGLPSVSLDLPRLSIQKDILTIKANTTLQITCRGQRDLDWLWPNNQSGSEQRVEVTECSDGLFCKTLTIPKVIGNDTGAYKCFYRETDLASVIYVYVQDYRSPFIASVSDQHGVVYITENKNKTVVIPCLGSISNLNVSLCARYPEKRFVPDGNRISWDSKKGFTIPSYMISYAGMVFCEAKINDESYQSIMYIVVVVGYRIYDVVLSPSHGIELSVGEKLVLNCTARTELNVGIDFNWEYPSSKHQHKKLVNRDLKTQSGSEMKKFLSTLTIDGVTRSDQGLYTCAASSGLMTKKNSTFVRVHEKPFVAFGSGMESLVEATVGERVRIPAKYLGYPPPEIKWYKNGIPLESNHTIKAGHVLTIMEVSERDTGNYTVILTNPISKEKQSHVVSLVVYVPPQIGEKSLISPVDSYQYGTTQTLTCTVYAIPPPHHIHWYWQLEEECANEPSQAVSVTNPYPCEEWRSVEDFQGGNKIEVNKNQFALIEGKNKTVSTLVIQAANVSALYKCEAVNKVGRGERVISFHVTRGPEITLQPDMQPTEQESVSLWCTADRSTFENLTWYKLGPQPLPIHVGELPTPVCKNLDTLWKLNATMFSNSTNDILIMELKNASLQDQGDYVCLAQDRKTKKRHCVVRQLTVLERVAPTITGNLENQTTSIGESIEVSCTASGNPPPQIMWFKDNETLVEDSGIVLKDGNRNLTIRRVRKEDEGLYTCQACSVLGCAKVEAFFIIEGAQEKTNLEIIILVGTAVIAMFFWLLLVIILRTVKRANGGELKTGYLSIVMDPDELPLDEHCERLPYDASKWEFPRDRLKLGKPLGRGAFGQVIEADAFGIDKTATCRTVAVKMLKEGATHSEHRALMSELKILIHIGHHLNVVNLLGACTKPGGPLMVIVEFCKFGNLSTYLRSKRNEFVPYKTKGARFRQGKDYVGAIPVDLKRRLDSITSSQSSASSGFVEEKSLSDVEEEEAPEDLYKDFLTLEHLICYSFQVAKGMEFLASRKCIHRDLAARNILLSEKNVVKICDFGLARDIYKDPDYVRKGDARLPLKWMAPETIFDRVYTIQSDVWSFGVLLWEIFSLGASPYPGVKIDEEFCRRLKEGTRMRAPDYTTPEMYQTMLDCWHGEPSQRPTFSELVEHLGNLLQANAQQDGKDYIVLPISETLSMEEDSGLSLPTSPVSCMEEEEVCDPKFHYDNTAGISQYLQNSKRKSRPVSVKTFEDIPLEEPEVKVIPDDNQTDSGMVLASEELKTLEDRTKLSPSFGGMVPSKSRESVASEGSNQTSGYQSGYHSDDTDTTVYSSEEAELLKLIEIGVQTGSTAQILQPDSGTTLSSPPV
remaining activity at 0.1 µM (VEGFR2) [%],remaining activity at 0.1 µM (PDGFRβ) [%],Compound,Tumor Growth Inhibition (TGI) [1],% c-Met kinase activity remains (c-Met)
< 70,,"COc1ccc(Cl)cc1NC(=O)Nc1cccc2c1CCN2Cc1ccnc2[nH]ccc12.Cl [Example 1, 1-(2-Methoxyl-5-chlorophenyl)-3-[1-(1H-pyrrolo[2,3-b]pyridin-4-ylmethyl)-2,3-dihydro-1H-indol-4-yl]urea hydrochloride]",A (the TGI is greater or equal to 50%),A (the percentage of kinase activity remains is below 70%)
< 70,≥ 70,"COc1ccc(OC)c(NC(=O)Nc2cccc3c2ccn3Cc2c[nH]c3ncccc23)c1.Cl [Example 32, 1-(2,5-Dimethoxyphenyl)-3-[1-(1H-pyrrolo[2,3-b]pyridin-3-ylmethyl)-1H-indol-4-yl]urea hydrochloride]",,A (the percentage of kinase activity remains is below 70%)
< 70,≥ 70,"Cl.O=C(Nc1ccc(Cl)cc1F)Nc1cccc2c1ccn2Cc1ccnc2[nH]ccc12 [Example 55, 1-(2-Fluoro-4-chlorophenyl)-3-[1-(1H-pyrrolo[2,3-b]pyridin-4-ylmethyl)-1H-indol-4-yl]urea hydrochloride]",,B (the percentage is greater or equal to 70%)
< 70,≥ 70,"Cl.O=C(Nc1cccc(Br)c1)Nc1cccc2c1ccn2Cc1c[nH]c2ncccc12 [Example 12, 1-(3-Bromophenyl)-3-[1-(1H-pyrrolo[2,3-b]pyridin-3-ylmethyl)-1H-indol-4-yl]urea hydrochloride]",,A (the percentage of kinase activity remains is below 70%)
≥ 70,≥ 70,"Cl.O=C(Nc1ccc(OC(F)(F)F)cc1)Nc1cccc2c1ccn2Cc1c[nH]c2ncccc12 [Example 22, 1-(4-Trifluoromethoxyphenyl)-3-[1-(1H-pyrrolo[2,3-b]pyridin-3-ylmethyl)-1H-indol-4-yl]urea hydrochloride]",,A (the percentage of kinase activity remains is below 70%)
< 70,≥ 70,"Cl.O=C(Nc1cc(Cl)ccc1F)Nc1cccc2c1ccn2Cc1c[nH]c2ncccc12 [Example 29, 1-(2-Fluoro-5-chlorophenyl)-3-[1-(1H-pyrrolo[2,3-b]pyridin-3-ylmethyl)-1H-indol-4-yl]urea hydrochloride]",,B (the percentage is greater or equal to 70%)
< 70,≥ 70,"Cl.O=C(Nc1cc(Br)ccc1F)Nc1cccc2c1ccn2Cc1c[nH]c2ncccc12 [Example 30, 1-(2-Fluoro-5-bromophenyl)-3-[1-(1H-pyrrolo[2,3-b]pyridin-3-ylmethyl)-1H-indol-4-yl]urea hydrochloride]",,B (the percentage is greater or equal to 70%)
≥ 70,≥ 70,"Cl.N#Cc1ccc(NC(=O)Nc2cccc3c2ccn3Cc2ccnc3[nH]ccc23)cc1 [Example 54, 1-(4-Cyanophenyl)-3-[1-(1H-pyrrolo[2,3-b]pyridin-4-ylmethyl)-1H-indol-4-yl]urea hydrochloride]",,B (the percentage is greater or equal to 70%)
< 70,≥ 70,"Cl.O=C(Nc1ccc(Cl)cc1F)Nc1cccc2c1ccn2Cc1c[nH]c2ncccc12 [Example 28, 1-(2-Fluoro-4-chlorophenyl)-3-[1-(1H-pyrrolo[2,3-b]pyridin-3-ylmethyl)-1H-indol-4-yl]urea hydrochloride]",,A (the percentage of kinase activity remains is below 70%)
